These molecules were tested on BV-173 (assay: cell viability (% survival relative to DMSO control); higher = less cytotoxic). Conditions: drug1 concentration 500 nM; drug2 concentration 1000 nM; 72 h.
Procedure: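 8x8 drug-combination matrices (0–5000 nM; rosiglitazone and lestaurtinib 0–1000 nM) were run in BV-173 cells for 72 h with CellTiter-Glo read-out. Survival is normalised to DMSO and 10 µM bortezomib and clipped at 100%.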
In the case of `O=C(C1CC1)N1CC[C@@H](C=C2NNC(=O)N2c2ccc(-c3ccc4occc4c3)cc2)C1` + O=C(c1c2ccccc2cc2ccccc12)N1CCC(N2CCC[C@@H](C(=O)N3CCOCC3)C2)CC1 [CP-640186], the cell viability is reported as greater than 100%.
Molecule `CC(C)c1onc(-c2c(Cl)cccc2Cl)c1COc1ccc(/C=C/c2cccc(C(=O)O)c2)c(Cl)c1` [GW4064] + Cn1cc(-c2ccncc2)c(-c2ccc(OCc3ccc4ccccc4n3)cc2)n1 [PF-02545920] has a cell viability of 95.5%.

Same assay, conditions: drug1 concentration 500 nM; drug2 concentration 5000 nM; 72 h
Work on `O=C(C1CC1)N1CC[C@@H](C=C2NNC(=O)N2c2ccc(-c3ccc4occc4c3)cc2)C1` + CS(=O)(=O)N1CCN(Cc2cc3nc(-c4cccc5[nH]ncc45)nc(N4CCOCC4)c3s2)CC1 [Pictilisib] yielded a cell viability of 75.7%.
`O=C(C1CC1)N1CC[C@@H](C=C2NNC(=O)N2c2ccc(-c3ccc4occc4c3)cc2)C1` + C[C@H](NC(=O)c1sccc1OCc1ccc(Cl)cc1)c1ccccc1 [as1949490] showed a cell viability of 44.2%.
For `O=C(C1CC1)N1CC[C@@H](C=C2NNC(=O)N2c2ccc(-c3ccc4occc4c3)cc2)C1` + O=C(c1c2ccccc2cc2ccccc12)N1CCC(N2CCC[C@@H](C(=O)N3CCOCC3)C2)CC1 [CP-640186], the cell viability was 91.6%.
`CC(C)c1onc(-c2c(Cl)cccc2Cl)c1COc1ccc(/C=C/c2cccc(C(=O)O)c2)c(Cl)c1` [GW4064] + Cn1cc(-c2ccncc2)c(-c2ccc(OCc3ccc4ccccc4n3)cc2)n1 [PF-02545920] was tested, and the cell viability was 92.8%.

Same assay, conditions: drug1 concentration 1000 nM; drug2 concentration 5 nM; 72 h
With `O=C(C1CC1)N1CC[C@@H](C=C2NNC(=O)N2c2ccc(-c3ccc4occc4c3)cc2)C1` + CS(=O)(=O)N1CCN(Cc2cc3nc(-c4cccc5[nH]ncc45)nc(N4CCOCC4)c3s2)CC1 [Pictilisib] the cell viability was 77.5%.
`O=C(C1CC1)N1CC[C@@H](C=C2NNC(=O)N2c2ccc(-c3ccc4occc4c3)cc2)C1` + C[C@H](NC(=O)c1sccc1OCc1ccc(Cl)cc1)c1ccccc1 [as1949490] showed a cell viability of 93.3%.
`O=C(C1CC1)N1CC[C@@H](C=C2NNC(=O)N2c2ccc(-c3ccc4occc4c3)cc2)C1` + O=C(c1c2ccccc2cc2ccccc12)N1CCC(N2CCC[C@@H](C(=O)N3CCOCC3)C2)CC1 [CP-640186] gave a cell viability of 98.1%.
Molecule `CC(C)c1onc(-c2c(Cl)cccc2Cl)c1COc1ccc(/C=C/c2cccc(C(=O)O)c2)c(Cl)c1` [GW4064] + Cn1cc(-c2ccncc2)c(-c2ccc(OCc3ccc4ccccc4n3)cc2)n1 [PF-02545920] has a cell viability greater than 100%.

Same assay, conditions: drug1 concentration 1000 nM; drug2 concentration 10 nM; 72 h
Work on `O=C(C1CC1)N1CC[C@@H](C=C2NNC(=O)N2c2ccc(-c3ccc4occc4c3)cc2)C1` + CS(=O)(=O)N1CCN(Cc2cc3nc(-c4cccc5[nH]ncc45)nc(N4CCOCC4)c3s2)CC1 [Pictilisib] yielded a cell viability greater than 100%.
With `O=C(C1CC1)N1CC[C@@H](C=C2NNC(=O)N2c2ccc(-c3ccc4occc4c3)cc2)C1` + C[C@H](NC(=O)c1sccc1OCc1ccc(Cl)cc1)c1ccccc1 [as1949490] the cell viability was greater than 100%.
`O=C(C1CC1)N1CC[C@@H](C=C2NNC(=O)N2c2ccc(-c3ccc4occc4c3)cc2)C1` + O=C(c1c2ccccc2cc2ccccc12)N1CCC(N2CCC[C@@H](C(=O)N3CCOCC3)C2)CC1 [CP-640186] was tested, and the cell viability was 96.1%.
In the case of `CC(C)c1onc(-c2c(Cl)cccc2Cl)c1COc1ccc(/C=C/c2cccc(C(=O)O)c2)c(Cl)c1` [GW4064] + Cn1cc(-c2ccncc2)c(-c2ccc(OCc3ccc4ccccc4n3)cc2)n1 [PF-02545920], the cell viability is reported as greater than 100%.

Same assay, conditions: drug1 concentration 1000 nM; drug2 concentration 50 nM; 72 h
With `O=C(C1CC1)N1CC[C@@H](C=C2NNC(=O)N2c2ccc(-c3ccc4occc4c3)cc2)C1` + CS(=O)(=O)N1CCN(Cc2cc3nc(-c4cccc5[nH]ncc45)nc(N4CCOCC4)c3s2)CC1 [Pictilisib] the cell viability was 99.1%.
In the case of `O=C(C1CC1)N1CC[C@@H](C=C2NNC(=O)N2c2ccc(-c3ccc4occc4c3)cc2)C1` + C[C@H](NC(=O)c1sccc1OCc1ccc(Cl)cc1)c1ccccc1 [as1949490], the cell viability is reported as 88.7%.
Molecule `O=C(C1CC1)N1CC[C@@H](C=C2NNC(=O)N2c2ccc(-c3ccc4occc4c3)cc2)C1` + O=C(c1c2ccccc2cc2ccccc12)N1CCC(N2CCC[C@@H](C(=O)N3CCOCC3)C2)CC1 [CP-640186] has a cell viability of 78.9%.
Work on `CC(C)c1onc(-c2c(Cl)cccc2Cl)c1COc1ccc(/C=C/c2cccc(C(=O)O)c2)c(Cl)c1` [GW4064] + Cn1cc(-c2ccncc2)c(-c2ccc(OCc3ccc4ccccc4n3)cc2)n1 [PF-02545920] yielded a cell viability of 80.7%.

Same assay, conditions: drug1 concentration 1000 nM; drug2 concentration 100 nM; 72 h
Molecule `O=C(C1CC1)N1CC[C@@H](C=C2NNC(=O)N2c2ccc(-c3ccc4occc4c3)cc2)C1` + CS(=O)(=O)N1CCN(Cc2cc3nc(-c4cccc5[nH]ncc45)nc(N4CCOCC4)c3s2)CC1 [Pictilisib] has a cell viability of 87.4%.
`O=C(C1CC1)N1CC[C@@H](C=C2NNC(=O)N2c2ccc(-c3ccc4occc4c3)cc2)C1` + C[C@H](NC(=O)c1sccc1OCc1ccc(Cl)cc1)c1ccccc1 [as1949490] gave a cell viability of 96%.
`O=C(C1CC1)N1CC[C@@H](C=C2NNC(=O)N2c2ccc(-c3ccc4occc4c3)cc2)C1` + O=C(c1c2ccccc2cc2ccccc12)N1CCC(N2CCC[C@@H](C(=O)N3CCOCC3)C2)CC1 [CP-640186] was tested, and the cell viability was greater than 100%.
`CC(C)c1onc(-c2c(Cl)cccc2Cl)c1COc1ccc(/C=C/c2cccc(C(=O)O)c2)c(Cl)c1` [GW4064] + Cn1cc(-c2ccncc2)c(-c2ccc(OCc3ccc4ccccc4n3)cc2)n1 [PF-02545920] gave a cell viability greater than 100%.

Same assay, conditions: drug1 concentration 1000 nM; drug2 concentration 500 nM; 72 h
`O=C(C1CC1)N1CC[C@@H](C=C2NNC(=O)N2c2ccc(-c3ccc4occc4c3)cc2)C1` + CS(=O)(=O)N1CCN(Cc2cc3nc(-c4cccc5[nH]ncc45)nc(N4CCOCC4)c3s2)CC1 [Pictilisib] gave a cell viability of 98.7%.
In the case of `O=C(C1CC1)N1CC[C@@H](C=C2NNC(=O)N2c2ccc(-c3ccc4occc4c3)cc2)C1` + C[C@H](NC(=O)c1sccc1OCc1ccc(Cl)cc1)c1ccccc1 [as1949490], the cell viability is reported as 92.3%.
For `O=C(C1CC1)N1CC[C@@H](C=C2NNC(=O)N2c2ccc(-c3ccc4occc4c3)cc2)C1` + O=C(c1c2ccccc2cc2ccccc12)N1CCC(N2CCC[C@@H](C(=O)N3CCOCC3)C2)CC1 [CP-640186], the cell viability was greater than 100%.
With `CC(C)c1onc(-c2c(Cl)cccc2Cl)c1COc1ccc(/C=C/c2cccc(C(=O)O)c2)c(Cl)c1` [GW4064] + Cn1cc(-c2ccncc2)c(-c2ccc(OCc3ccc4ccccc4n3)cc2)n1 [PF-02545920] the cell viability was greater than 100%.

Same assay, conditions: drug1 concentration 1000 nM; drug2 concentration 1000 nM; 72 h
Molecule `O=C(C1CC1)N1CC[C@@H](C=C2NNC(=O)N2c2ccc(-c3ccc4occc4c3)cc2)C1` + CS(=O)(=O)N1CCN(Cc2cc3nc(-c4cccc5[nH]ncc45)nc(N4CCOCC4)c3s2)CC1 [Pictilisib] has a cell viability of 99.9%.
With `O=C(C1CC1)N1CC[C@@H](C=C2NNC(=O)N2c2ccc(-c3ccc4occc4c3)cc2)C1` + C[C@H](NC(=O)c1sccc1OCc1ccc(Cl)cc1)c1ccccc1 [as1949490] the cell viability was 73.6%.
With `O=C(C1CC1)N1CC[C@@H](C=C2NNC(=O)N2c2ccc(-c3ccc4occc4c3)cc2)C1` + O=C(c1c2ccccc2cc2ccccc12)N1CCC(N2CCC[C@@H](C(=O)N3CCOCC3)C2)CC1 [CP-640186] the cell viability was greater than 100%.
`CC(C)c1onc(-c2c(Cl)cccc2Cl)c1COc1ccc(/C=C/c2cccc(C(=O)O)c2)c(Cl)c1` [GW4064] + Cn1cc(-c2ccncc2)c(-c2ccc(OCc3ccc4ccccc4n3)cc2)n1 [PF-02545920] gave a cell viability of 87.3%.

Same assay, conditions: drug1 concentration 1000 nM; drug2 concentration 5000 nM; 72 h
Work on `O=C(C1CC1)N1CC[C@@H](C=C2NNC(=O)N2c2ccc(-c3ccc4occc4c3)cc2)C1` + CS(=O)(=O)N1CCN(Cc2cc3nc(-c4cccc5[nH]ncc45)nc(N4CCOCC4)c3s2)CC1 [Pictilisib] yielded a cell viability of 70.6%.
Molecule `O=C(C1CC1)N1CC[C@@H](C=C2NNC(=O)N2c2ccc(-c3ccc4occc4c3)cc2)C1` + C[C@H](NC(=O)c1sccc1OCc1ccc(Cl)cc1)c1ccccc1 [as1949490] has a cell viability of 57.2%.
Molecule `O=C(C1CC1)N1CC[C@@H](C=C2NNC(=O)N2c2ccc(-c3ccc4occc4c3)cc2)C1` + O=C(c1c2ccccc2cc2ccccc12)N1CCC(N2CCC[C@@H](C(=O)N3CCOCC3)C2)CC1 [CP-640186] has a cell viability greater than 100%.
For `CC(C)c1onc(-c2c(Cl)cccc2Cl)c1COc1ccc(/C=C/c2cccc(C(=O)O)c2)c(Cl)c1` [GW4064] + Cn1cc(-c2ccncc2)c(-c2ccc(OCc3ccc4ccccc4n3)cc2)n1 [PF-02545920], the cell viability was 78.5%.

Same assay, conditions: drug1 concentration 5000 nM; drug2 concentration 5 nM; 72 h
`O=C(C1CC1)N1CC[C@@H](C=C2NNC(=O)N2c2ccc(-c3ccc4occc4c3)cc2)C1` + CS(=O)(=O)N1CCN(Cc2cc3nc(-c4cccc5[nH]ncc45)nc(N4CCOCC4)c3s2)CC1 [Pictilisib] was tested, and the cell viability was 84.8%.
Molecule `O=C(C1CC1)N1CC[C@@H](C=C2NNC(=O)N2c2ccc(-c3ccc4occc4c3)cc2)C1` + C[C@H](NC(=O)c1sccc1OCc1ccc(Cl)cc1)c1ccccc1 [as1949490] has a cell viability of 80.6%.
For `O=C(C1CC1)N1CC[C@@H](C=C2NNC(=O)N2c2ccc(-c3ccc4occc4c3)cc2)C1` + O=C(c1c2ccccc2cc2ccccc12)N1CCC(N2CCC[C@@H](C(=O)N3CCOCC3)C2)CC1 [CP-640186], the cell viability was 77.8%.

Reference: the supplement of paper PMC8671470
